# Patent publication US9932637B2, “Genetic polymorphisms associated with cardiovascular disorders and drug response, methods of detection and uses thereof” (CELERA CORPORATION, priority 2003, dated 2018)
# Test system: patients with prior myocardial infarction (CARE study)
# Test: CARE: association of SNPs with pravastatin treatment in cardiovascular events prevention (logistic regression, odds ratio pravastatin vs placebo by genotype; Table 8)
# Format: in vivo, human
# Settings: for Any Report of Stroke Prior to or During CARE, n/total (%) / Cardiovascular Mortality, n/total (%) / Fatal Atherosclerotic Cardiovascular Disease, n/total (%) / Fatal Coronary Heart Disease, n/total (%) / Fatal/Non-fatal Atherosclerotic CV Disease, n/total (%) / Total Coronary Heart Disease Events, n/total (%) / Total Mortality, n/total (%) / Hosp. for Cardiovascular Disease, n/total (%) / Total Cardiovascular Disease Events, n/total (%): Prava arm; for Odds ratio pravastatin vs placebo: TGFB1 hCV8708473, All Patients
# Source text: In order to identify genetic markers associated with acute coronary events (e.g. MI, stroke, unstable angina, congestive heart failure, etc.) or response to statin treatment for the prevention of coronary events, samples from the Cholesterol and Recurrent Events (CARE) study (a randomized multicentral double-blinded trial on secondary prevention of acute coronary events with pravastatin) (Sacks et al., 1991, Am. J. Cardiol. 68: 1436-1446) were genotyped. A well-documented myocardial infarction (MI) was one of the enrollment criteria for entry into the CARE study. Patients were enrolled in the CARE trial from 80 participating study centers. […] Patients were randomized to receive either 40 mg of pravastatin once daily or a matching placebo. The primary endpoint of the trial was death from coronary heart disease and the median duration of follow-up was 5.0 years (range, 4.0 to 6.2 years). […] Secondary endpoints of other related cardiovascular or metabolic disease events, and changes in clinical variables were also recorded in pravastatin-treated and placebo groups. All individuals included in the study had signed a written informed consent form and the study protocol was approved by the respective Institutional Review Boards (IRBs).
# For genotyping SNPs in CARE patient samples, DNA was extracted from blood samples using conventional DNA extraction methods such as the QIA-amp kit from Qiagen. Genotypes were obtained on an ABI PRISM® 7900HT Sequence Detection PCR system (Applied Biosystems, Foster City, Calif.) by kinetic allele-specific PCR, similar to the method described by Germer et al. (Germer S., Holland M. J., Higuchi R. 2000, Genome Res. 10: 258-266).
# Statistical analysis for association of SNPs with pravastatin treatment in cardiovascular events prevention (Table 8) was carried out using an overall logistic regression model that included an intercept, a parameter for the effect of a genotype containing two rare alleles versus a genotype containing no rare alleles, a parameter for the effect of a genotype containing one rare allele versus a genotype containing no rare alleles, a parameter for the effect of use of pravastatin versus the use of placebo, and parameters for the interaction effects between SNP genotypes and pravastatin use. The test of the overall model is a chi-square test with two degrees of freedom for analyses containing all three genotypes, and one degree of freedom for analyses containing two genotypes.
# Effect sizes were estimated through odds ratios (pravastatin group versus placebo) for carriers of each genotype (groups of 0, 1, and 2 minor allele carriers). The effect was considered to be significant if p-value for testing whether any of the interactions between SNP genotypes and pravastatin use were <0.05. […] Odds ratios less than one indicate that the specific SNP allele has a protective effect and odds ratios greater than one indicate that the specific SNP allele has an adverse effect.
# [1] = TGFB1 hCV8708473, All Patients, 1 Rare Allele
# [2] = TGFB1 hCV8708473, All Patients, 2 Rare Alleles
# [3] = TGFB1 hCV22272997, All Patients, 0 Rare Alleles
# [4] = TGFB1 hCV22272997, All Patients, 1 Rare Allele
# [5] = TGFB1 hCV22272997, All Patients, 2 Rare Alleles
# [6] = TLR5 hCV15871020, All Patients, 0 Rare Alleles
# [7] = TLR5 hCV15871020, All Patients, 1 Rare Allele
structure (smiles),measurement,setting,value
CC[C@H](C)C(=O)O[C@H]1C[C@H](O)C=C2C=C[C@H](C)[C@H](CC[C@@H](O)C[C@@H](O)CC(=O)O)[C@H]21 [pravastatin],"Any Report of Stroke Prior to or During CARE, n/total (%)",[1],(3.8%)
same,"Cardiovascular Mortality, n/total (%)",[1],(1.7%)
same,"Fatal Atherosclerotic Cardiovascular Disease, n/total (%)",[1],(1.7%)
same,"Fatal Coronary Heart Disease, n/total (%)",[1],(1.2%)
same,"Fatal/Non-fatal Atherosclerotic CV Disease, n/total (%)",[1],(27.9%)
same,"Total Coronary Heart Disease Events, n/total (%)",[1],(23.9%)
same,"Total Mortality, n/total (%)",[1],(3.8%)
same,"Any Report of Stroke Prior to or During CARE, n/total (%)",[2],(3.7%)
same,"Cardiovascular Mortality, n/total (%)",[2],(3.1%)
same,"Fatal Atherosclerotic Cardiovascular Disease, n/total (%)",[2],(3.1%)
same,"Fatal Coronary Heart Disease, n/total (%)",[2],(2.5%)
same,"Fatal/Non-fatal Atherosclerotic CV Disease, n/total (%)",[2],(38.3%)
same,"Total Coronary Heart Disease Events, n/total (%)",[2],(37.0%)
same,"Total Mortality, n/total (%)",[2],(4.9%)
same,Odds ratio pravastatin vs placebo,"Any Report of Stroke Prior to or During CARE, 0 rare alleles",1.35
same,Odds ratio pravastatin vs placebo,"Any Report of Stroke Prior to or During CARE, 1 rare allele",0.68
same,Odds ratio pravastatin vs placebo,"Any Report of Stroke Prior to or During CARE, 2 rare alleles",0.38
same,Odds ratio pravastatin vs placebo,"Cardiovascular Mortality, 0 rare alleles",1.95
same,Odds ratio pravastatin vs placebo,"Cardiovascular Mortality, 1 rare allele",0.30
same,Odds ratio pravastatin vs placebo,"Cardiovascular Mortality, 2 rare alleles",0.48
same,Odds ratio pravastatin vs placebo,"Fatal Atherosclerotic Cardiovascular Disease, 0 rare alleles",1.90
same,Odds ratio pravastatin vs placebo,"Fatal Atherosclerotic Cardiovascular Disease, 1 rare allele",0.30
same,Odds ratio pravastatin vs placebo,"Fatal Atherosclerotic Cardiovascular Disease, 2 rare alleles",0.48
same,Odds ratio pravastatin vs placebo,"Fatal Coronary Heart Disease, 0 rare alleles",1.79
same,Odds ratio pravastatin vs placebo,"Fatal Coronary Heart Disease, 1 rare allele",0.26
same,Odds ratio pravastatin vs placebo,"Fatal Coronary Heart Disease, 2 rare alleles",0.49
same,Odds ratio pravastatin vs placebo,"Fatal/Non-fatal Atherosclerotic CV Disease, 0 rare alleles",0.94
same,Odds ratio pravastatin vs placebo,"Fatal/Non-fatal Atherosclerotic CV Disease, 1 rare allele",0.59
same,Odds ratio pravastatin vs placebo,"Fatal/Non-fatal Atherosclerotic CV Disease, 2 rare alleles",0.81
same,Odds ratio pravastatin vs placebo,"Total Coronary Heart Disease Events, 0 rare alleles",0.91
same,Odds ratio pravastatin vs placebo,"Total Coronary Heart Disease Events, 1 rare allele",0.58
same,Odds ratio pravastatin vs placebo,"Total Coronary Heart Disease Events, 2 rare alleles",1.00
same,Odds ratio pravastatin vs placebo,"Total Mortality, 0 rare alleles",1.50
same,Odds ratio pravastatin vs placebo,"Total Mortality, 1 rare allele",0.48
same,Odds ratio pravastatin vs placebo,"Total Mortality, 2 rare alleles",0.65
same,"Cardiovascular Mortality, n/total (%)",[3],(5.6%)
same,"Fatal Atherosclerotic Cardiovascular Disease, n/total (%)",[3],(5.6%)
same,"Fatal Coronary Heart Disease, n/total (%)",[3],(5.2%)
same,"Total Coronary Heart Disease Events, n/total (%)",[3],(32.5%)
same,"Total Mortality, n/total (%)",[3],(7.4%)
same,"Cardiovascular Mortality, n/total (%)",[4],(2.5%)
same,"Fatal Atherosclerotic Cardiovascular Disease, n/total (%)",[4],(2.4%)
same,"Fatal Coronary Heart Disease, n/total (%)",[4],(2.0%)
same,"Total Coronary Heart Disease Events, n/total (%)",[4],(25.0%)
same,"Total Mortality, n/total (%)",[4],(4.6%)
same,"Cardiovascular Mortality, n/total (%)",[5],(2.5%)
same,"Fatal Atherosclerotic Cardiovascular Disease, n/total (%)",[5],(2.5%)
same,"Fatal Coronary Heart Disease, n/total (%)",[5],(2.0%)
same,"Total Coronary Heart Disease Events, n/total (%)",[5],(33.2%)
same,"Total Mortality, n/total (%)",[5],(3.7%)
same,"Fatal/Non-fatal Atherosclerotic CV Disease, n/total (%)",[6],(34.4%)
same,"Hosp. for Cardiovascular Disease, n/total (%)",[6],(40.8%)
same,"Total Cardiovascular Disease Events, n/total (%)",[6],(42.0%)
same,"Total Coronary Heart Disease Events, n/total (%)",[6],(30.5%)
same,"Fatal/Non-fatal Atherosclerotic CV Disease, n/total (%)",[7],(32.1%)
same,"Hosp. for Cardiovascular Disease, n/total (%)",[7],(40.8%)
same,"Total Cardiovascular Disease Events, n/total (%)",[7],(41.8%)
same,"Total Coronary Heart Disease Events, n/total (%)",[7],(27.2%)
